For the experiment, the target named is MBL (Homo sapiens, UniProt P11226). The experiment in a line: Affinity of monomeric saccharides for MBL. Type of experiment: binding.
MBL, sequence (P11226 21-248): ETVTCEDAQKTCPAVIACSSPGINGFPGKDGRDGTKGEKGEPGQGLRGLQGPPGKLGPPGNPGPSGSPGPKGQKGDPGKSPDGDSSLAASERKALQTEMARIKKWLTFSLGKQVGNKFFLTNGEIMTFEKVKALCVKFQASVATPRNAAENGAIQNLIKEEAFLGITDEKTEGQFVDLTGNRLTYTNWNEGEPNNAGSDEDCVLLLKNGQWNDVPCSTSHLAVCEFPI

Regarding `O=C[C@H](O)[C@@H](O)[C@@H](O)[C@H](O)CO` [galactose], the “affinity for MBL” value is recorded as “very low affinity”.

As to `CC(=O)N[C@H]1C(O)O[C@H](CO)[C@@H](O)[C@@H]1O` (some centres unmarked) [N-acetyl-glucosamine], the “affinity for MBL” value is recorded as “high affinity”.

For the origin of these results see patent US8478375B2, “Sensor for detection of carbohydrate” (Medtronic Minimed, Inc., priority 2004, dated 2013).
